According to patent US20250109141A1, “BRD4 PROTEIN DEGRADER COMPOUND, AND PREPARATION METHOD AND USE THEREOF” (Miracure Biotechnology Limited, priority 2023, published 2025):
Read-outs that look alike come from different tables or passages of the source.

Key:
LNCaP = test: Cell proliferation assay (CellTiterGlo, 72 h), LNCaP; assay type: cell-based; conditions: Homo sapiens, LNCap cells, 72 h compound treatment, read-out: LNCap ATP average IC50
Method: The cell line used was 22RV1 or LNCaP, and the medium was RPMI-1640 containing 10% FBS and antibiotics. All incubations were performed at 37° C. in a humidified carbon dioxide incubator.
On day 1, cells were digested with 0.25% trypsin (containing EDTA) and collected by centrifugation.
(§1) The cells were seeded in a 96-well plate (white wall/transparent bottom) at 5000 cells/well and cultured overnight.
(§2) On day 2, A stock solution of the compound at a concentration of 10 mM was subjected to an 8-fold serial dilution to obtain 8 concentration points. 2 μL of the compound solution at each concentration point was added to 98 μL of fresh medium, and the mixture was mixed homogeneously. Then, 5 μL of the compound solution diluted in the medium at each concentration point was added to 100 μL of overnight medium containing the cells, and 2 replicates were set for each concentration. The mixture was cultured for 72 h.
(§3) After 72 h of compound treatment, the plate was equilibrated to room temperature, 100 μL of CellTiterGlo (Promega) was added. The mixture was mixed homogeneously for 2 min, left to stand at room temperature for 10 min, and then read for luminescence values on a SpectraMax M5 microplate reader to evaluate cell viability. The positive control was 1% Tween-20 and the negative control was 0.1% DMSO. IC50 was generated by 4-parameter non-linear regression fitting in GraphPad Prism.

22RV1 = test: Cell proliferation assay (CellTiterGlo, 72 h), 22RV1; assay type: cell-based; conditions: read-out: 22Rv1 ATP average IC50
Method: All incubations were performed at 37° C. in a humidified carbon dioxide incubator.
as §1, §2, §3

[1] = Homo sapiens, 22Rv1 cells, 72 h compound treatment, CellTiterGlo

Structure (SMILES)	IC50 (LNCaP) [µM]	IC50 (22RV1; [1]) [µM]	IC50 (22RV1; Homo sapiens, 22Rv1, 72 h) [µM]	IC50 (22RV1) [µM]
Cc1sc2c(c1C)C(c1ccc(C#CC(=O)O)cc1)=N[C@@H](CC(=O)OC(C)(C)C)c1nnc(C)n1-2 [Compound 9020]	> 0.5	> 0.5	–	–
Cc1sc2c(c1C)C(c1ccc(C#CC(=O)N(C)N)cc1)=N[C@@H](CC(=O)OC(C)(C)C)c1nnc(C)n1-2 [Compound 9023]	> 0.5	> 0.5	–	–
Cc1sc2c(c1C)C(c1ccc(-c3ccc(CN)n3C)cc1)=N[C@@H](CC(=O)OC(C)(C)C)c1nnc(C)n1-2 [Compound 9062]	0.05 to 0.2	0.05 to 0.2	–	–
CONCC#Cc1ccc(C2=N[C@@H](CC(=O)OC(C)(C)C)c3nnc(C)n3-c3sc(C)c(C)c32)cc1 [Compound 9064]	< 0.05	< 0.05	–	–
Cc1sc2c(c1C)C(c1ccc(N3CC4(CC(N)C4)C3)cc1)=N[C@@H](CC(=O)OC(C)(C)C)c1nnc(C)n1-2 [Compound 9066]	< 0.05	0.2 to 0.5	–	–
Cc1sc2c(c1C)C(c1ccc(C#CCN)cc1)=N[C@@H](CC(=O)NCCO)c1nnc(C)n1-2 [Compound 9076]	0.2 to 0.5	–	> 0.5	–
COc1ccc2c(c1)C(c1ccc(C#CCNC(=N)N)cc1)=N[C@@H](CC(=O)OC(C)(C)C)c1nnc(C)n1-2 [Compound 9159]	> 0.5	–	> 0.5	–
CC(=O)NNCC#Cc1ccc(C2=N[C@@H](CC(=O)OC(C)(C)C)c3nnc(C)n3-c3sc(C)c(C)c32)cc1 [Compound 9046]	0.05 to 0.2	< 0.05	–	–
CCOC(=O)C[C@@H]1N=C(c2ccc(C#CCN)cc2)c2cc(OC)ccc2-n2c(C)nnc21 [Compound 9069]	< 0.05	–	< 0.05	–
Cc1sc2c(c1C)C(c1ccc(C#CCN)cc1)=N[C@@H](CC(=O)Nc1ccc(O)cc1)c1nnc(C)n1-2 [Compound 9012]	0.05 to 0.2	–	0.2 to 0.5	–
Cc1sc2c(c1C)C(c1ccc(C#CC(=O)NN)cc1)=N[C@@H](CC(=O)OC(C)(C)C)c1nnc(C)n1-2 [Compound 9017]	< 0.05	0.2 to 0.5	–	–
COc1ccc2c(c1)C(c1ccc(C#CCN)cc1)=N[C@@H](CC(=O)N(C)CCO)c1nnc(C)n1-2 [Compound 9063]	> 0.5	–	> 0.5	–
COc1ccc2c(c1)C(c1ccc(/C=C/C=N\O)cc1)=N[C@@H](CC(=O)OC(C)(C)C)c1nnc(C)n1-2 [Compound 9221]	0.2 to 0.5	–	> 0.5	–
Cc1sc2c(c1C)C(c1ccc(-c3ncc(CN)s3)cc1)=N[C@@H](CC(=O)OC(C)(C)C)c1nnc(C)n1-2 [Compound 9068]	0.05 to 0.2	0.05 to 0.2	–	–
Cc1sc2c(c1C)C(c1ccc(C#CCN)cc1)=N[C@@H](CC(=O)N(C)O)c1nnc(C)n1-2 [Compound 9025]	0.05 to 0.2	–	0.2 to 0.5	–
CCNC(=O)C[C@@H]1N=C(c2ccc(C#CCN)cc2)c2c(sc(C)c2C)-n2c(C)nnc21 [Compound 9013]	< 0.05	–	0.2 to 0.5	–
Cc1sc2c(c1C)C(c1ccc(-c3csc(CN)n3)cc1)=NC(CC(=O)OC(C)(C)C)c1nnc(C)n1-2 (centres unmarked) [Compound 9072]	< 0.05	0.05 to 0.2	–	–
Cc1sc2c(c1C)C(c1ccc(/C=C/CNC(=N)N)cc1)=N[C@@H](CC(=O)OC(C)(C)C)c1nnc(C)n1-2 [Compound 9110]	> 0.5	> 0.5	–	–
Cc1sc2c(c1C)C(c1ccc(C#CCN)cc1)=N[C@@H](CCOC(=O)C(C)(C)C)c1nnc(C)n1-2 [Compound 9091]	0.2 to 0.5	–	0.05 to 0.2	–
Cc1sc2c(c1C)C(c1ccc(C#CCN)cc1)=N[C@@H](CC(=O)N(C)CCO)c1nnc(C)n1-2 [Compound 9075]	< 0.05	–	0.2 to 0.5	–
C#CCNC(=O)C[C@@H]1N=C(c2ccc(C#CCN)cc2)c2c(sc(C)c2C)-n2c(C)nnc21 [Compound 9038]	0.2 to 0.5	–	0.05 to 0.2	–
Cc1noc2c1-c1ccccc1C(c1ccc(/C=C/CNO)cc1)=N[C@H]2CC(=O)OC(C)(C)C [Compound 9095]	0.05 to 0.2	0.05 to 0.2	–	–
Cc1noc2c1-c1ccccc1C(c1ccc(C#CCN)cc1)=N[C@H]2CC(=O)OC(C)(C)C [Compound 9098]	> 0.5	> 0.5	–	–
CONC/C=C/c1ccc(C2=N[C@@H](CC(=O)OC(C)(C)C)c3onc(C)c3-c3ccccc32)cc1 [Compound 9097]	> 0.5	> 0.5	–	–
Cc1sc2c(c1C)C(c1ccc(C#CCN)cc1)=N[C@@H](CC(N)=O)c1nnc(C)n1-2 [Compound 9001]	0.2 to 0.5	–	> 0.5	–
Cc1sc2c(c1C)C(c1ccc(C#CCN)cc1)=N[C@@H](CC(=O)N(C)N)c1nnc(C)n1-2 [Compound 9026]	> 0.5	–	> 0.5	–

Structure (SMILES)	IC50 (LNCaP) [µM]	IC50 (22RV1; [1]) [µM]	IC50 (22RV1; Homo sapiens, 22Rv1, 72 h) [µM]	IC50 (22RV1) [µM]
Cc1sc2c(c1C)C(c1ccc(-c3cnc(CN)s3)cc1)=NC(CC(=O)OC(C)(C)C)c1nnc(C)n1-2 (centres unmarked) [Compound 9073]	< 0.05	0.05 to 0.2	–	–
Cc1sc2c(c1C)C(c1ccc(-c3cc(CN)nn3C)cc1)=N[C@@H](CC(=O)OC(C)(C)C)c1nnc(C)n1-2 [Compound 9058]	0.2 to 0.5	> 0.5	–	–
Cc1sc2c(c1C)C(c1ccc(C#CC(N)=O)cc1)=N[C@@H](CC(=O)OC(C)(C)C)c1nnc(C)n1-2 [Compound 9002]	< 0.05	< 0.05	–	–
CC(=O)NOC/C=C/c1ccc(C2=N[C@@H](CC(=O)OC(C)(C)C)c3nnc(C)n3-c3sc(C)c(C)c32)cc1 [Compound 9094]	0.05 to 0.2	0.05 to 0.2	–	–
Cc1sc2c(c1C)C(c1ccc(-c3cc(=O)[nH]o3)cc1)=N[C@@H](CC(=O)OC(C)(C)C)c1nnc(C)n1-2 [Compound 9003]	0.05 to 0.2	> 0.5	–	–
COC(=O)C[C@@H]1N=C(c2ccc(Cl)cc2)c2c(sc(C(=O)NCCOCCNC(=O)C[C@@H]3N=C(c4ccc(C#CCN)cc4)c4c(sc(C)c4C)-n4c(C)nnc43)c2C)-n2c(C)nnc21 [Compound 9157]	0.2 to 0.5	0.2 to 0.5	–	–
Cc1sc2c(c1C)C(c1ccc(-c3cccc(N)c3)cc1)=NC(CC(=O)OC(C)(C)C)c1nnc(C)n1-2 (centres unmarked) [Compound 9087]	0.2 to 0.5	> 0.5	–	–
CONC(=O)C#Cc1ccc(C2=N[C@@H](CC(=O)OC(C)(C)C)c3nnc(C)n3-c3sc(C)c(C)c32)cc1 [Compound 9055]	< 0.05	< 0.05	–	–
Cc1sc2c(c1C)C(c1ccc(/C=C/CN)cc1)=N[C@@H](Cc1nnc(C(C)C)o1)c1nnc(C)n1-2 [Compound 9168]	< 0.05	< 0.05	–	–
COC(=O)C#Cc1ccc(C2=N[C@@H](CC(=O)OC(C)(C)C)c3nnc(C)n3-c3sc(C)c(C)c32)cc1 [Compound 9019]	0.05 to 0.2	0.2 to 0.5	–	–
Cc1sc2c(c1C)C(c1ccc(N3CC(CN)C3)cc1)=N[C@@H](CC(=O)OC(C)(C)C)c1nnc(C)n1-2 [Compound 9061]	0.2 to 0.5	0.05 to 0.2	–	–
COc1ccc2c(c1)C(c1ccc(C#CCN)cc1)=N[C@@H](CC(=O)O)c1nnc(C)n1-2 [Compound 9070]	> 0.5	–	> 0.5	–
Cc1sc2c(c1C)C(c1ccc(-c3nc(CN)cs3)cc1)=N[C@@H](CC(=O)OC(C)(C)C)c1nnc(C)n1-2 [Compound 9059]	< 0.05	0.05 to 0.2	–	–
COC(=O)C=Cc1ccc(C2=N[C@@H](CC(=O)OC(C)(C)C)c3nnc(C)n3-c3sc(C)c(C)c32)cc1 [Compound 9118]	< 0.05	0.2 to 0.5	–	–
Cc1sc2c(c1C)C(c1ccc(/C=C/CNS(C)(=O)=O)cc1)=N[C@@H](CC(=O)OC(C)(C)C)c1nnc(C)n1-2 [Compound 9200]	0.05 to 0.2	0.05 to 0.2	–	–
Cc1sc2c(c1C)C(c1ccc(N3CC(CO)C3)cc1)=N[C@@H](CC(=O)OC(C)(C)C)c1nnc(C)n1-2 [Compound 9105]	–	0.2 to 0.5	–	–
Cc1noc2c1-c1ccccc1C(c1ccc(/C=C/CN)cc1)=N[C@H]2CC(=O)OC(C)(C)C [Compound 9122]	0.05 to 0.2	> 0.5	–	–
CCNC(=O)C[C@@H]1N=C(c2ccc(Cl)cc2)c2cc(OC)ccc2-n2c(C)nnc21 [I-BET-762, reference compound]	> 0.5	> 0.5	–	–
COc1ccc2c(c1)C(c1ccc(/C=C/CON)cc1)=N[C@@H](CC(=O)OC(C)(C)C)c1nnc(C)n1-2 [Compound 9092]	–	–	> 0.5	–
COc1ccc2c(c1)C(c1ccc(/C=C/CNO)c(F)c1)=N[C@@H](CC(=O)O)c1nnc(C)n1-2 [Compound 9214]	> 0.5	–	> 0.5	–
Cc1sc2c(c1C)C(c1ccc(-c3ccoc3CN)cc1)=N[C@@H](CC(=O)OC(C)(C)C)c1nnc(C)n1-2 [Compound 9060]	0.05 to 0.2	0.2 to 0.5	–	–
Cc1sc2c(c1C)C(c1ccc(-c3cccc(CN)c3)cc1)=NC(CC(=O)OC(C)(C)C)c1nnc(C)n1-2 (centres unmarked) [Compound 9085]	0.05 to 0.2	> 0.5	–	–
Cc1sc2c(c1C)C(c1ccc(C#CCN)cc1)=N[C@@H](CC(=O)O)c1nnc(C)n1-2 [Compound 9021]	0.05 to 0.2	–	> 0.5	–
Cc1sc2c(c1C)C(c1ccc(C#CCN)cc1)=N[C@@H](CC13OCC(C)(CO1)CO3)c1nnc(C)n1-2 [Compound 9113]	–	–	–	0.2 to 0.5
Cc1sc2c(c1C)C(c1ccc(/C=C/CON)cc1)=N[C@@H](CC(=O)OC(C)(C)C)c1nnc(C)n1-2 [Compound 9083]	–	< 0.05	–	–
